Consider three compounds from patent US5298519A, “Acylals of imidazole-5-carboxylic acid derivatives, and their use as angiotensin (II) inhibitors” (priority 1991, dated 1994).

The target in series [1] is angiotensin II-1 subtype receptor. The experiment in a line: affinity for angiotensin II-1 subtype receptor on rat adrenal cortex microsomes (3H-DuP 753). Format: binding. Particulars: adrenal cortex microsomes of rats. The protocol:
The affinity of the substances for the angiotensin II-1 subtype receptor was determined on adrenal cortex microsomes of rats (system: ^3 H-DuP 753).

In series [2] the test system is angiotensin II. The experiment in a line: pithed rats, inhibition of hypertensive action of angiotensin II. Format: in vivo, rat. An excerpt:
FIGS. 2a), b) and c) depict the effect of the presently claimed and known intravenously administered compounds on angiotensin II induced increases on diastolic blood pressure in pithed rats.
FIGS. 3a), b) and c) depict the effect of known and claimed intraduodenally administered compounds on angiotensin II induced increases of diastolic blood pressure in pithed rats.
FIG. 4 depicts further the effect of known and prior art intraduodenally administered compounds on angiotensin II induced increases of diastolic blood pressure in pithed rats.

For series [3], the system named is angiotensin II. The experiment in a line: anaesthetized, normotensive rats, duration of action against angiotensin II after intraduodenal administration. Format: in vivo, rat. The conditions noted are these: for time to maximum angiotensin antagonistic action: after intraduodenal administration, Example 1 at 3 mg/kg. The protocol:
FIG. 5 depicts the effect of known and prior art intraduodenally administered compounds on angiotensin II induced increases of mean arterial blood pressure in anaesthetized, normotensive rats.
FIGS. 6a) and b) depict the effect of known and prior art intraduodenally administered compounds on antiotensin II induced increases in mean arterial blood pressure in normotensive rats.
The duration of action of the substance was determined in anaesthetized, normotensive rats. Angiotensin II (1 μg.kg) was administered intravenously before substance administration and at 15 minute intervals after intraduodenal substance administration.

The test system of series [4] is angiotensin II receptor. Particulars: cited from earlier work.
Series [5] deals with angiotensin II receptor. The experiment in a line: isolated rat aorta, inhibition of maximum contraction due to angiotensin II. Format: cell-based. Particulars: for inhibition at 0.1 µM / inhibition at 0.01 µM / inhibition at 0.001 µM: Rattus norvegicus, angiotensin II 3 × 10^-7 mol/l; for inhibition at 0.1 µM: 10^-7 mol/l compound; for inhibition at 0.01 µM: 10^-8 mol/l compound; for inhibition at 0.001 µM: 10^-9 mol/l compound. An excerpt:
FIGS. 1a) and b) depict the action of a compound according to the present invention and a compound of the prior art on the contractile force of an isolated rat aorta.
Isolated rat aorta: % inhibition of the maximum contraction

Setting [6] is: anaesthetized normotensive rats, intraduodenal.

For the compound `CCCCc1nc(Cl)c(CO)n1Cc1ccc(-c2ccccc2-c2nnn[nH]2)cc1` [DuP 753, 2-n-butyl-4-chloro-5-hydroxymethyl-1-((2'-(1H-tetrazol-5-yl)biphenyl-4-yl)methyl)imidazole], the 50% inhibitory concentration (IC50) (as a rule, the concentration at which inhibition is half-maximal) in series [1] worked out at 7.24 nM. Moreover, in the series with angiotensin II [2], the “type of inhibition of the hypertensive action of angiotensin II” value (shortened to “type of inhibition … of angiotensin II”) is “competitive inhibition, that is to say to a parallel shift to the right of the dose-response curve of angiotensin II without a reduction in the maximum effect”. The sequence of potency result with angiotensin II [2] (intraduodenal) is reported as “Example 1>DuP 753>EXP 3174”; in the series on angiotensin II [3] (setting [6]) it was “Example 1>DuP 753”. For the same compound, the “time to maximum angiotensin antagonistic action” value with angiotensin II [3] is 30 to 60 min. For the same compound, in the series with angiotensin II receptor [4] (in vivo), the “conversion on in vivo administration” value is reported as “converted on in vivo administration to a non-competitive metabolite EXP 3174”.
In series [1], `CCCCc1nc(Cl)c(C(=O)O)n1Cc1ccc(-c2ccccc2-c2nnn[nH]2)cc1` [EXP 3174, 2-n-butyl-4-chloro-1-((2'-(1H-tetrazol-5-yl)biphenyl-4-yl)methyl)imidazole-5-carboxylic acid] showed an IC50 of 7.87 nM. For the same compound, in the series with angiotensin II receptor [5], the inhibition (commonly the share of the control response that was lost under treatment) at 0.1 µM is 100%, the inhibition at 0.01 µM came out at 95% and testing at 0.001 µM gave an inhibition of 76%. In addition, the “type of angiotensin II receptor antagonism” value in the series with angiotensin II receptor [5] (isolated rat aorta) was “selective, non-competitive angiotensin II receptor antagonists”. Besides, the “reduction of the maximum contraction due to angiotensin II (in words)” value with angiotensin II receptor [5] (isolated rat aorta, 10^-9 -10^-7 mol/l) was “acting in a comparatively more potent manner”. Also, the “type of inhibition … of angiotensin II” value in the series with angiotensin II [2] is recorded as “in a non-competitive manner”. Besides, the sequence of potency entry with angiotensin II [2] (intraduodenal) is “Example 1>DuP 753>EXP 3174”. The “contribution to the duration of action of DuP 753” value in the series with angiotensin II receptor [4] (in vivo) was “responsible to a large extent for the duration of action of DuP 753”. Also, the type of antagonism entry in the series on angiotensin II receptor [4] (metabolite of DuP 753) is recorded as “non-competitive”.
For `CCCCc1nc(Cl)c(C(=O)OC(C)OC(=O)OCC)n1Cc1ccc(-c2ccccc2-c2nn[nH]n2)cc1` (stereo not drawn) [Example 1], 79.4 nM corresponded to half-maximal inhibition in series [1] (IC50). In the series with angiotensin II receptor [5], this compound displayed an inhibition at 0.1 µM of 98%, an inhibition at 0.01 µM of 72% and an inhibition at 0.001 µM of 63%. Further, the “type of angiotensin II receptor antagonism” value in the series with angiotensin II receptor [5] (isolated rat aorta) was “selective, non-competitive angiotensin II receptor antagonists”. For the same compound, the “type of inhibition … of angiotensin II” value with angiotensin II [2] is on record as “in a non-competitive manner”. Besides, in the series with angiotensin II [2] (intraduodenal), the “potency after intraduodenal administration” value is “by far the most potent substance” and the sequence of potency entry is recorded as “Example 1>DuP 753>EXP 3174”. The “potency relative to EXP 3174” value with angiotensin II [2] (intravenous, Example 1 0.3-10 mg/kg) is “about as potent as EXP 3174”. Further, the “potency relative to DuP 753” value in the series with angiotensin II [2] (intravenous, Example 1 0.3-10 mg/kg, DuP 753 1-10 mg/kg) is on record as “slightly more potent than DuP 753”. Also, in the series on angiotensin II [3] (3 mg/kg of Example 1, intraduodenal, anaesthetized normotensive rats), the “effectiveness relative to 10 mg/kg of DuP 753” value is listed as “about twice as effective as 10 mg/kg of DuP 753”. In the series with angiotensin II [3], the “time to maximum angiotensin antagonistic action” value turned out to be 15 min. Also, in the series with angiotensin II [3] (setting [6]), the sequence of potency entry is “Example 1>DuP 753”. In addition, the onset of action result with angiotensin II [3] (intraduodenal, normotensive rats) was “particularly rapid, dose-dependent onset of action”.
